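The compound was tested at five concentrations on cells cultured in 96-well plates, with a 48-hour exposure period. GI50 = concentration required for 50% inhibition of growth.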 Active and inactive are the calls of the source. Rule as the data show it: active = GI50 up to about 1.1 µM and inactive = higher.

The values below come from ChEMBL document CHEMBL1201862, “PubChem BioAssay data set” (2004).

Test systems include MOLT-4; K562; SN12C; OVCAR-3; SK-OV-3; SR; OVCAR-8; COLO 205; LOX IMVI; SF-539; SK-MEL-28; HCT-15; SF-268; NCI-H460.
What all share (test): NCI anticancer screen, dose series, 48 h

Consider `CN(C)CCNC(=O)c1cccc2cc3c(Cl)cccc3nc12`, for which the GI50 with MOLT-4 was 0.22 µM (active); in the experiment on K562 it was 0.946 µM (active); in the experiment with SN12C, 1.07 µM (active); in the experiment with OVCAR-3, 1.82 µM (inactive); in the experiment on SK-OV-3, 3.53 µM (inactive); in the experiment on SR it was 0.308 µM (active). In addition, the GI50 was 1.1 µM (active) with OVCAR-8; 1.01 µM (active) in the experiment on COLO 205; 0.583 µM (active) in the experiment on LOX IMVI; 0.873 µM (active) in the experiment on SF-539; 2.15 µM (inactive) in the experiment with SK-MEL-28; 1.19 µM in the experiment with HCT-15.
On to `Cc1cn2c(=O)c3ccccc3nc2s1`, for which the GI50 with MOLT-4, in the experiment with K562, in the experiment with SN12C, in the experiment with OVCAR-3, in the experiment with SK-OV-3 and with SR was > 100 µM (inactive) in each case. In addition, the GI50 was > 100 µM (inactive) in the experiment on OVCAR-8; > 100 µM (inactive) with COLO 205; > 100 µM (inactive) in the experiment with LOX IMVI; 88.7 µM (inactive) in the experiment on SF-539; > 100 µM (inactive) in the experiment with SF-268; > 100 µM (inactive) in the experiment with SK-MEL-28. Further, in the experiment with NCI-H460, the GI50 is > 100 µM (inactive).
`CCOC(=O)C1(Cc2ccc3ccccc3c2)CCCCCN1` (stereo not drawn): the GI50 in the experiment on MOLT-4 is 4.91 µM (inactive); with K562, 22.8 µM (inactive); in the experiment on SN12C it was 29.4 µM (inactive); in the experiment on OVCAR-3, 45.3 µM (inactive); in the experiment on SK-OV-3, 32.7 µM (inactive); in the experiment with OVCAR-8 it was 39.6 µM (inactive). Besides, the GI50 with COLO 205 was 18.7 µM (inactive); with LOX IMVI it was 20.1 µM (inactive); in the experiment on SF-268 it was 58.5 µM (inactive); with SK-MEL-28, 23.3 µM (inactive); with HCT-15, 18.7 µM; with NCI-H460, 18.4 µM (inactive).
For `c1ccc([P+](c2ccccc2)(c2ccccc2)C2Sc3ccccc3S2)cc1`, the GI50 is 16.9 µM (inactive) in the experiment with K562; 16.6 µM (inactive) in the experiment on SN12C; 14.5 µM (inactive) with OVCAR-3; 28.8 µM (inactive) in the experiment on SK-OV-3; 15.1 µM (inactive) in the experiment with OVCAR-8; 16.7 µM (inactive) in the experiment on COLO 205. Moreover, the GI50 in the experiment on LOX IMVI is 11.4 µM (inactive); in the experiment on SF-539, 18.3 µM (inactive); with SF-268 it was 17.2 µM (inactive); in the experiment with SK-MEL-28, 13.6 µM (inactive); with NCI-H460, 23.3 µM (inactive).
In the case of `CCOC(=O)c1cn(CC)c2cc3c(cc2c1=O)SCS3`, the GI50 with MOLT-4, in the experiment on K562, with SN12C, in the experiment on OVCAR-3, in the experiment on SK-OV-3 and in the experiment with OVCAR-8 was > 100 µM (inactive) in each case. For the same molecule, the GI50 in the experiment on COLO 205 is > 100 µM (inactive); in the experiment on LOX IMVI, > 100 µM (inactive); in the experiment with SF-539, > 100 µM (inactive); in the experiment with SF-268 it was > 100 µM (inactive); with SK-MEL-28, > 100 µM (inactive); with HCT-15 it was over 100 µM. In addition, in the experiment with NCI-H460, the GI50 was > 100 µM (inactive).
In the case of `O=C(N/N=C1\C(=O)N(c2nccs2)C(=O)C(=O)C1c1nc2ccccc2s1)c1ccccc1O` (stereo not drawn), the GI50 in the experiment with K562 was 19.7 µM (inactive); in the experiment with SN12C it was 39.1 µM (inactive); in the experiment on OVCAR-3, 35.9 µM (inactive); with SK-OV-3, > 100 µM (inactive); in the experiment on OVCAR-8, 43 µM (inactive); with COLO 205, > 100 µM (inactive). The GI50 with LOX IMVI is 44.3 µM (inactive); in the experiment on SF-539 it was 28.1 µM (inactive); in the experiment on SF-268 it was 12.1 µM (inactive); in the experiment on SK-MEL-28, 88.1 µM (inactive); in the experiment with HCT-15 it was 41.8 µM; with NCI-H460, 53.3 µM (inactive).
Regarding `Cc1nc2c(nc1C)C(=O)C1=C(C2=O)C2C=CC1CC2`, the GI50 was 1.32 µM (inactive) in the experiment with MOLT-4; 2.48 µM (inactive) in the experiment on K562; 16.7 µM (inactive) with SN12C; 5.83 µM (inactive) with OVCAR-3; 40.3 µM (inactive) with SK-OV-3; 3.48 µM (inactive) in the experiment on OVCAR-8. The GI50 in the experiment on COLO 205 is 14.9 µM (inactive); in the experiment on LOX IMVI, 2.21 µM (inactive); in the experiment with SF-539, 13.8 µM (inactive); in the experiment on SF-268, 5.42 µM (inactive); in the experiment on SK-MEL-28 it was 18.3 µM (inactive); with HCT-15 it was 15.1 µM. The GI50 with NCI-H460 is 17.9 µM (inactive).
Regarding `O=C(Nc1nc2ncn(CCOC(=O)c3ccccc3)c2c(=S)[nH]1)c1ccccc1`, the GI50 with K562 is 60.8 µM (inactive); in the experiment with SN12C, > 100 µM (inactive); in the experiment with OVCAR-3, 43.1 µM (inactive); in the experiment with SK-OV-3 it was > 100 µM (inactive); in the experiment with OVCAR-8, 45.6 µM (inactive); in the experiment on COLO 205, > 100 µM (inactive). Moreover, the GI50 was > 100 µM (inactive) in the experiment on LOX IMVI; 30.5 µM (inactive) with SF-539; 13.5 µM (inactive) in the experiment with SF-268; 42.3 µM (inactive) with SK-MEL-28; over 100 µM in the experiment on HCT-15; 48.1 µM (inactive) in the experiment with NCI-H460.
For the molecule `CCOC(=O)C1(C)CCCCC(=O)N1` (stereo not drawn), the GI50 in the experiment on K562, in the experiment with SN12C, in the experiment on OVCAR-3, in the experiment with SK-OV-3, with OVCAR-8 and in the experiment with COLO 205 was > 100 µM (inactive) throughout. The GI50 with LOX IMVI was > 100 µM (inactive); in the experiment with SF-268, > 100 µM (inactive); in the experiment on SK-MEL-28 it was > 100 µM (inactive); with HCT-15 it was over 100 µM; in the experiment on NCI-H460 it was > 100 µM (inactive).
For `COC(=O)C(=O)C(C#N)c1nc2ccccc2s1` (stereo not drawn), the GI50 with MOLT-4 was 60.4 µM (inactive); with K562, 57.4 µM (inactive); in the experiment on SN12C, > 100 µM (inactive); in the experiment on OVCAR-3, > 100 µM (inactive); in the experiment on SK-OV-3, > 100 µM (inactive); with OVCAR-8, > 100 µM (inactive). Besides, the GI50 in the experiment on COLO 205 was > 100 µM (inactive); with LOX IMVI it was > 100 µM (inactive); in the experiment on SF-539, 98.9 µM (inactive); in the experiment on SF-268, > 100 µM (inactive); in the experiment with SK-MEL-28, > 100 µM (inactive); in the experiment on HCT-15 it was 57 µM. Besides, in the experiment on NCI-H460, the GI50 was 63.4 µM (inactive).
On to `Cc1cc(C(O)CCCc2ccccc2)cc(C)c1O` (stereo not drawn), for which the GI50 in the experiment on MOLT-4 is 19.4 µM (inactive); in the experiment on K562, 28.6 µM (inactive); in the experiment with SN12C it was 41.8 µM (inactive); in the experiment with OVCAR-3 it was 31.1 µM (inactive); in the experiment with SK-OV-3, > 100 µM (inactive); with OVCAR-8, 47.5 µM (inactive). Moreover, the GI50 is 67.6 µM (inactive) in the experiment on COLO 205; 34 µM (inactive) with LOX IMVI; 38.2 µM (inactive) in the experiment on SF-539; 28.4 µM (inactive) in the experiment on SF-268; 34.4 µM (inactive) with SK-MEL-28; 45.9 µM in the experiment with HCT-15. For the same molecule, the GI50 with NCI-H460 is 36.6 µM (inactive).
`CC1CN1c1c(C(=O)/C=C/c2ccc(Cl)cc2)c(-c2ccccc2)nn(C)c1=O` (stereo not drawn): the GI50 in the experiment with MOLT-4 is 2.24 µM (inactive); in the experiment on K562 it was 2.82 µM (inactive); in the experiment with SN12C, 3.11 µM (inactive); with OVCAR-3 it was 2.6 µM (inactive); in the experiment with SK-OV-3 it was 2.59 µM (inactive); in the experiment with OVCAR-8, 2.55 µM (inactive). Besides, the GI50 in the experiment with COLO 205 was 1.96 µM (inactive); in the experiment on LOX IMVI, 2.08 µM (inactive); in the experiment on SF-539, 1.94 µM (inactive); in the experiment with SF-268, 3.98 µM (inactive); with SK-MEL-28, 3.89 µM (inactive); in the experiment on HCT-15, 1.82 µM. The GI50 with NCI-H460 was 2.28 µM (inactive).
